From patent publication EP0880540B1, “17-BETA-CYCLOPROPYL(AMINO/OXY) 4-AZA STEROIDS AS ACTIVE INHIBITORS OF TESTOSTERONE 5-ALPHA-REDUCTASE AND C17-20-LYASE” (Aventis Pharmaceuticals Inc., priority 1996, dated 1997)

Experiments:
[1] = biological target: T1, cynomolgus monkey prostatic 5α-reductase (Macaca fascicularis, UniProt Q28892); assay: In vitro 5α-reductase assay, prostate microsomes; type: biochemical; conditions: mean of duplicates
T1 construct: microsomal preparations of the 5α-reductase enzyme from laboratory animal prostate tissue; from tissue; host or cells: cynomolgus monkey prostate, microsomes
T1 sequence (Q28892 1-254): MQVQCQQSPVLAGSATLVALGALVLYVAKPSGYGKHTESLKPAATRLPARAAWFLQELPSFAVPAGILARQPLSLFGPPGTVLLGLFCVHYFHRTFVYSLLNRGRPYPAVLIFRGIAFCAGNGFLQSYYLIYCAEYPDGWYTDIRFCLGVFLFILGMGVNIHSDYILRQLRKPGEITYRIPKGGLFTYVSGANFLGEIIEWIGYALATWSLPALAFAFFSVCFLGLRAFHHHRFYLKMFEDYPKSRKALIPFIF
Experimental: In vitro 5α-reductase assays: The activity of the present compounds as inhibitors of steroid 5α-reductase was determined using microsomal preparations of the 5α-reductase enzyme from laboratory animal prostate tissue. Specifically, microsomes were isolated from cynomolgus monkey prostate tissue. Protein concentration of the microsomal preparations was determined prior to use of the samples. Individual assays of cynomolgus monkey prostatic 5α-reductase activity contained 0.1 M potassium phosphate-sodium citrate buffer, pH 5.6 1.0% (w/v) bovine serum albumin, […] sodium EDTA, 4 µg of microsomal protein, 1.0 mM NADPH, 5.0 mM glucose-6-phosphate, 1 IU/mL glucose-6-phosphate dehydrogenase, [1,2-^3H]-testosterone (0.15 µCi) plus unlabeled testosterone to yield 0.015 µM (Km = 0.015 µM to 0.091 µM in multiple determinations), and test compound which was dissolved in DMSO then diluted in 0.1 M potassium phosphate-sodium citrate buffer, pH 5.6, to yield a final assay concentration of 0.1% (v/v) DMSO. The same buffer and DMSO without test compound were used in control assays. Background radioactivity was determined from assays containing all components except enzyme. Assays were performed in duplicate. Microsomes, 0.1 M potassium phosphate-sodium citrate buffer, pH 5.6, and test compound were preincubated at 37°C. Aliquots of 180 µL were removed after 0 or 40 minutes of preincubation and added to […] of testosterone substrate suspended in 0.1 M potassium phosphate-sodium citrate buffer, pH 5.6, containing 10% (v/v) DMSO. Remaining enzyme activity was assayed for 10 minutes at 37°C in a Dubnoff shaker incubator.
The reactions were terminated by the addition of 5 mL CHCl3:methanol (2:1) and 0.9 mL water. Carrier steroids were added in the form of 2.5 µg each of testosterone, dihydrotestosterone, and 3,17-androstanediol. Steroid metabolites were then extracted according to the procedure of Moore and Wilson (Methods in Enzymol., O'Malley, B.W. and Hardman, J.G. eds., 36, 1975, pp. 466-474), the organic phase containing the steroids was evaporated using nitrogen gas, the residues were dissolved in 3% (v/v) isopropanol in hexane. The steroids were then separated by normal phase HPLC on a LiCrosorb® DIOL derivatized silica gel column (10 µm; 4 x 250 mm) with a 3% to 7.5% isopropanol in hexane gradient, followed by isocratic conditions of […] isopropanol in hexane. Radioactivity in the steroid peaks was measured using a Packard Radiomatic model HS Flo-One detector. When the compound were tested using the above procedures with cynomolgus monkey 5α-reductase, the following results were obtained: Table 2: […]

[2] = tested on: Dunning H Tumor; assay: Dunning H tumor growth in rats; type: in vivo, male Copenhagen rats; conditions: MDL 105831 15 mg/kg/day PO, MDL 15910 50 mg/kg/day PO
Text: As described in J.T. Isaacs & D.S. Coffey, Cancer Res. 41:5070-5075 (1981); W.J. Ellis & J.T. Issacs, Cancer Res. 45:6041-6050 (1985); T.W. Bedding & A.V. Schally, The Prostate 6:219-232 (1985) and P.E. Juniewicz et al. The Prostate 18:105-115 (1991), male Copenhagen rats were obtained from HARLAN-SPRAGUE-DAWLEY Inc. (Indianapolis, IN), and were individually housed in suspended wire cages and provided laboratory rodent chow (Purina 5001 pellets, Purina Mills, St. Louis, MO) and deionized water ad libum. The rats were anesthetized using sodium pentobarbital and the hair was clipped from the back dorsal area. Tumors from donor Copenhagen rats were cut into fragments of 10 mm^3 and implanted subcutaneously (one site per rat) into the prepared dorsal area.
Animals were selected (105 days post implantation) for the treatment phase based on tumor size. Ten animals were anesthetized with sodium pentobarbital and bilaterally castrated. The remaining animals were assigned to treatment groups (ten per group) based on mean group tumor size. Animals were kept separate throughout the study. The tested compounds were prepared in solution or suspension in a lecithin vehicle (L-α-phosphatidylcholine type XV-E) containing methylparaben and propylparaben. All treatments were performed by oral gavage (per os) at 2 cc/kg each day of study. Tumor size and rat body weights were recorded every seven days over a period of 35 days. Twenty-four hours after the last treatment animals were euthenized by CO2 and the tumors, prostate, seminal vesicles and testes were removed and weighed. In Table 4, average tumor growth is determined from the corrected group means over a 35 day period after treatment was started. […] The animals eliminated from the calculation of the corrected means were in Figure 6, animals 8, 9, 10; in Figure 7, animals 18, 19 and 20; in Figure 8, animals 27, 28, 29 and 30; and in Figure 9, animals 37, 39 and 40. The castrated controls in Figure 10 present a different problem. Here it is believed that the different tumor volumes observed throughout the group is attributable to the different sizes at the beginning of the study. Since the mean variance here is clearly attributable to factors other than the effect of the castration itself, animals 47, 48, 49 and 50 were deleted from the corrected mean. Of these, animal 47 died during the treatment period.
Table 4 indicates the average daily growth rate, measured from the corrected mean tumor size on day 35 and day 0, comparing MDL 105831 and flutamide (MDL 15910), a known androgen receptor antagonist. […]

SMILES: CC12CCC3C(CC[C@H]4NC(=O)CCC34C)C1CC[C@@H]2OC1CC1 (stereo partly drawn) [MDL 103,432, 17β-Cyclopropyloxy-4-aza-5α-androstan-3-one]
- inhibition at 0.1 µM ([1]; preincubation 0 min): 78.7%
- inhibition at 0.1 µM ([1]; preincubation 40 min): 80%
- inhibition at 1 µM ([1]; preincubation 0 min): 98.7%
- inhibition at 1 µM ([1]; preincubation 40 min): 99.3%
- inhibition at 10 µM ([1]; preincubation 0 min): 99.4%
- inhibition at 10 µM ([1]; preincubation 40 min): 99.4%

SMILES: C[C@]12CC[C@H]3[C@@H](CC=C4NC(=O)CC[C@@]43C)[C@@H]1CC[C@@H]2NC1CC1 [MDL 105,831, 17β-Cyclopropylamino-4-aza-androst-5-en-3-one]
- Tumor Growth in Dunning H Rat, Day 0 ([2]; Day 0 (baseline), corrected group mean): 328.40 mm^3
- Tumor Growth in Dunning H Rat, Day 7 ([2]; Day 7, corrected group mean): 389.90 mm^3
- Tumor Growth in Dunning H Rat, Day 16 ([2]; Day 16, corrected group mean): 497.20 mm^3
- Tumor Growth in Dunning H Rat, Day 21 ([2]; Day 21, corrected group mean): 759.40 mm^3
- Tumor Growth in Dunning H Rat, Day 29 ([2]; Day 29, corrected group mean): 1135.80 mm^3
- Tumor Growth in Dunning H Rat, Day 35 ([2]; Day 35, corrected group mean): 1041.60 mm^3
- Δv/Δt (day 35-day 0) ([2]; average daily growth rate from corrected mean tumor size): 20.38 mm^3/day
